Laboratory results taken from patent US12263144B2, “Methods of treating IgA nephropathy with thiol-containing molecules” (Accubit LLC—Biotechnology, priority 2020, dated 2025).

Tests used:
Format in all cases: biochemical
[1] = tested on: Rat rIgA (poly-rIgA); assay: SEC determination of poly- and mono-rIgA content of rat rIgA after treatment; settings: for disassembly of poly-rIgA into monomers (SEC): rat rIgA, reducing agents added, FIG. 3 A-C
Description: (§1) The overall complex size of IgA aggregates was determined either by size-exclusion chromatography (SEC: Superdex 200 Increase 10/300 by GL Cytiva), or by SDS-PAGE. For evaluating the involvement of intermolecular disulfide connectivity in IgA complexes, IgA samples were treated with either reducing agents, such as DTT, TCEP or reduced glutathione (Sigma), or interventional drugs, such as cysteamine (Sigma), WR-1065 (Sigma) and N-Acetyl-L-cysteine (VWR Chemicals) in phosphate-buffered saline (PBS) pH7.4. Before running on SEC, samples were treated with the drugs at indicated concentrations at 37° C. for one hour.
In the meantime, the SEC column was also equilibrated with PBS supplemented with the reducing agent at the same concentration. For running SEC, 100 μL of the recombinant IgA (concentration varies between 1 mg/mL and 8 mg/mL) or purified native human IgA1 (˜1 mg/mL) was loaded to the column and UV absorption was recorded following elution. […] The ratios between poly-rIgA and mono-rIgA were calculated as between the corresponding areas under the curve (AUC), and the treatment effect of the thiol agents was judged by the reduction of the poly-rIgA level with a compensatory increase of the mono-rIgA content.
To further investigate specific cysteine residue(s) involved in IgA complexes, expression vectors were constructed to produce recombinant IgA (rIgA) Fc segments of rat and human sequences (FIG. 2, part A) as discussed above. Rat IgA analogs were expressed in BL21 DE3 strain of E. coil and recombinant protein were purified from the bacterial lysate using Histrap HP columns (GE Healthcare) by running fast protein liquid chromatography (FPLC). Human recombinant IgA mimetics were produced from human embryo kidney (HEK293) cells by transfection of the expressing plasmids. Recombinant IgA proteins expressed by the cells were secreted into the culture medium, and they were subsequently purified by Histrap HP columns by FPLC using standard procedures. […] Rat rIgA was produced from bacterial expression as discussed above.
Cysteamine (Cy), an aminothiol that can react with cysteine, is both a natural metabolite produced in mammalian cells and a clinical drug used for treatment of cystinosis. In cystinosis, cysteamine reduces the disulfide bond in cystine, which is the oxidated dimer of amino acid cysteine (FIG. 4, part A). In the context of cysteine residues in proteins, endogenous cysteamine as well as the therapeutic drug forms mixed disulfides with susceptible cysteine sulfhydryl groups in a process called cysteamination (FIG. 4, part B). It was sought to determine whether cysteamine could reduce Cys471-disulfides to disaggregate poly-IgA. Rat rIgA (SEQ ID NO.4) was treated with various concentrations of cysteamine for one hour at 37° C. in phosphate buffered saline at neutral pH and the protein complexes were analyzed by SEC. The SEC column (model: Superdex 200 Increase 10/300 GL by Cytiva) was preequilibrated with the same buffer supplemented with the same concentration of cysteamine.

[2] = tested on: natural IgA1 assembly (two heavy chains and two light chains connected via disulfide bonds); assay: Ex vivo study: integrity of natural IgA assembly under thiol/reducing agents
Description: as §1
(§2) Proteins in sample buffer (Bio-Rad Laboratories, Hercules, CA, USA) with or without TCEP (for reducing or nonreducing condition, respectively) were resolved by 4-12% SDS-PAGE (Bio-Rad Laboratories). IgA bands were subsequently visualized either by staining with GelCode Blue (Thermo Fisher Scientific), or by Western blotting on PVDF membrane. For Western blotting, 5% non-fat milk was used in blocking for one hour at room temperature. The membrane was then incubated with mouse anti-Histag antibody (Thermo Scientific), or HRP-conjugated goat anti-rat IgA α-chain antibody (Cat. ab97185, Abcam, UK), or goat anti-human IgA HRP antibody (Cat: 2050-05, SouthernBiotech) for detecting rat or human IgA (Fc), respectively. The membrane was developed using the Clarity™ ECL substrate (Bio-Rad Laboratories, CA, USA).

[3] = biological target: T1, poly-IgA complexes from IgA nephropathy patients' plasma (Homo sapiens, UniProt P01876); assay: SDS-PAGE / anti-IgA Western blotting of poly-IgA from IgA nephropathy patients' plasma with or without reducing agent; settings: reducing condition
T1 construct: human IgA1 whole molecule was purified from pooled plasma of IgA nephropathy patients; from tissue
Text: (§3) IgA1 from IgA nephropathy patient sera was purified by Jacalin (Thermo Scientific, USA)-directed affinity chromatography. Poly-IgA1 contents were further enriched via running Superdex 200 Increase gel filtration molecular sieve (GE Biosciences) and collecting high-molecular weight fractions from an AKTA protein purification system (GE Biosciences). Human serum from healthy donors was purchased from Sigma-Aldrich and total IgA1 was also purified by running Jacalin-directed chromatography. Purified total IgA1 was used for injecting mice.
Proteins in sample buffer (Bio-Rad Laboratories, Hercules, CA, USA) with or without TCEP (for reducing or nonreducing condition, respectively) were resolved by 4-12% SDS-PAGE (Bio-Rad Laboratories). IgA bands were subsequently visualized either by staining with GelCode Blue (Thermo Fisher Scientific), or by Western blotting on PVDF membrane. […]
In this Example, it was sought to isolate high molecular weight IgA complexes, such as poly-IgA, from plasma of IgA nephropathy patients. […] By running SDS-PAGE of the poly-IgA fraction under both reducing and nonreducing conditions, it was determined that the molecular complexes of IgA were connected through disulfide bridges (FIG. 1, part B). […] IgA1 complexes were extracted from individual patients by SEC and analyzed the contents by SDS-PAGE.

[4] = biological target: T2, human IgA1 (poly-IgA1) (Homo sapiens, UniProt P01876); assay: SEC of native human IgA1 treated ex vivo; settings: total IgA1 from human sera, FIG. 5 E-F
T2 construct: human IgA1 whole molecule was purified from pooled plasma of IgA nephropathy patients; from tissue
Text: as §3, §1
In the meantime, the SEC column was also equilibrated with PBS supplemented with the reducing agent at the same concentration. For running SEC, 100 μL of the recombinant IgA (concentration varies between 1 mg/mL and 8 mg/mL) or purified native human IgA1 (˜1 mg/mL) was loaded to the column and UV absorption was recorded following elution. Recombinant IgA typically formed two elution peaks: a minor peak of ˜800 kDa poly-rIgA followed by a major peak of ˜170 kDa of monomeric rIgA. The ratios between poly-rIgA and mono-rIgA were calculated as between the corresponding areas under the curve (AUC), and the treatment effect of the thiol agents was judged by the reduction of the poly-rIgA level with a compensatory increase of the mono-rIgA content.
In addition, human IgA1 whole molecule was purified from pooled plasma of IgA nephropathy patients and subjected the sample to different concentrations of cysteamine (FIG. 5, part C). […]

[5] = tested on: rat poly-rIgA; assay: Nonreducing SDS-PAGE analysis of rat poly-rIgA after pretreatment; settings: cysteamine 0 to 10 mM; TCEP 10 mM; untreated poly-IgA >250 kDa
Description: as §2
To further ascertain the mechanism-of-action of cysteamine in targeting disulfides, nonreducing SDS-PAGE analysis was performed of rat poly-rIgA (FIG. 5, part D). The samples were pretreated with 0 to 10 mM cysteamine, or 10 mM TCEP as positive control. As expected, poly-IgA appeared as >250 kDa bands on SDS-PAGE. Dose-dependent response of poly-rIgA to cysteamine was evident, with majority of the protein running at ˜64 kDa of disaggregated monomers.

T1 sequence (P01876 1-353 isoform P01876-1, one chain of several): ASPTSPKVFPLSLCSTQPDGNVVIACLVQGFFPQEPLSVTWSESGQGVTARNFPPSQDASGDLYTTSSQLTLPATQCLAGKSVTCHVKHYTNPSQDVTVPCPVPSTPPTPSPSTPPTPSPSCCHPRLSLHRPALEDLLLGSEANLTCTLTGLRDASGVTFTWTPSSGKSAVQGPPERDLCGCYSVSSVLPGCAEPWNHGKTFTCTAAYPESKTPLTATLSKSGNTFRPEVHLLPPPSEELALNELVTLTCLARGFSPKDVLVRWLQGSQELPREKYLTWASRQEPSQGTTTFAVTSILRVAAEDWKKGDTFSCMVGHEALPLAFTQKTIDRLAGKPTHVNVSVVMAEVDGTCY
T2 sequence (P01876 1-353 isoform P01876-1): as the sequence (P01876 1-353 isoform P01876-1, one chain of several) above

SMILES | disassembly of poly-rIgA into monomers (SEC) [1] | disruption of natural IgA assembly / normal pairing of IgA heavy chains [2] | poly-IgA level (SEC) [4] | further results
O[C@@H](CS)[C@@H](O)CS (racemic) [DDT, 1,4-Dithiothreitol] | poly-rIgA disassembled into monomers | inadvertently dissociated normal pairing of IgA heavy chains | – | –
OCCS [2-mercaptoethanol] | – | – | – | size of IgA1 band after reduction of ~600 kDa poly-IgA1 (Western blot) ([3]; eight individual IgA nephropathy patients): ~65 kDa
CC(=O)N[C@@H](CS)C(=O)O [N-acetylcysteine, N-acetyl-L-cysteine] | – | did not cause unwanted disruption of natural IgA1 assembly | lowered poly-IgA levels in a dose-dependent manner | –
O=C(O)CCP(CCC(=O)O)CCC(=O)O [TCEP, tris(2-carboxyethyl)phosphine] | poly-rIgA disassembled into monomers | inadvertently dissociated normal pairing of IgA heavy chains | – | molecular weight of protein band after pretreatment (nonreducing SDS-PAGE) [5]: ~32 kDa; size of IgA band after reduction of ~600 kDa poly-IgA (Western blot) ([3]; pooled plasma of IgA nephropathy patients (n=10)): ~65 KDa
NCCCNCCS [WR-1065, 2-[(3-aminopropyl)amino]ethanethiol] | – | did not cause unwanted disruption of natural IgA1 assembly | reduction of poly-IgA levels | –
N[C@@H](CCC(=O)N[C@@H](CS)C(=O)NCC(=O)O)C(=O)O [glutathione] | – | – | – | effect on poly-IgA levels at comparable concentrations ([1]; compared with cysteamine, WR-1065, N-acetylcysteine): relatively modest effects on poly-IgA levels
